The results in this text go back to PubChem BioAssay (NCI).

Some test systems named below: HOP-62 NSCLC; M14 melanoma; NCI-H522 lung; OVCAR-4 ovarian; OVCAR-8 ovarian; SF-295 CNS; SK-MEL-2 melanoma; A498 renal.
Holding throughout (experiment): NCI-60 cell line screen, 48 h

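Results reflect a 48-hour exposure of cells in 96-well plates to compound at five concentrations. Abbreviation: GI50, concentration required for 50% inhibition of growth. TGI marks complete inhibition of growth.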 Where a SMILES comes first, the peptide text is derived from it. The star is where a group is joined. Trt = c1ccc(C(c2ccccc2)(c2ccccc2)*)cc1; Cbz = O=C(OCc1ccccc1)* A value given as a limit tells only on which side of the number the result lay.

Regarding `C/C(=N\O)c1ccc2ccc3ccccc3c2c1`, the TGI in the test with HOP-62 NSCLC is above 100 µM; in the test on M14 melanoma, above 100 µM; in the test with NCI-H522 lung it was 72.7 µM; with OVCAR-4 ovarian, 66.5 µM; in the test on OVCAR-8 ovarian, 61.4 µM; in the test on SF-295 CNS, 86.9 µM. Also, in the test with SK-MEL-2 melanoma, the TGI was above 100 µM.

With `O=C1CC2OCC=C3CN4CCC56c7ccccc7N1C5C2C3CC46O` (configuration not stated), the TGI in the test on A498 renal, with M14 melanoma, in the test with NCI-H522 lung, with OVCAR-4 ovarian, in the test on OVCAR-8 ovarian and in the test with SF-295 CNS was above 100 µM throughout. In the test with SK-MEL-2 melanoma, this molecule returned a TGI above 100 µM.

`COC(=O)C(CO)NC(=O)C(CSC(c1ccccc1)(c1ccccc1)c1ccccc1)NC(=O)OCc1ccccc1` (configuration not stated) (Cbz-Cys(Trt)-Ser-OMe; configuration not given here): the TGI in the test on HOP-62 NSCLC was 46.5 µM; in the test on M14 melanoma it was 44 µM; with NCI-H522 lung, 34.3 µM; in the test with OVCAR-4 ovarian it was above 50.2 µM; in the test on OVCAR-8 ovarian, 36.5 µM; in the test with SF-295 CNS, 34.5 µM. Further, the TGI in the test on SK-MEL-2 melanoma turned out to be 34.5 µM.

Take `COc1cccc(/C=C/C(=O)c2ccc3cc(OC)ccc3c2)c1`: the GI50 was 17.3 µM in the test on HOP-62 NSCLC; 13.6 µM in the test on M14 melanoma; 24.7 µM with OVCAR-4 ovarian; 10.6 µM with OVCAR-8 ovarian; 9.58 µM in the test on SF-295 CNS; 48.3 µM in the test with SK-MEL-2 melanoma. In addition, the TGI was above 50 µM in the test with HOP-62 NSCLC; 41.3 µM in the test with M14 melanoma; above 50 µM with OVCAR-4 ovarian; 33.3 µM in the test on OVCAR-8 ovarian; 22.1 µM with SF-295 CNS; above 50 µM with SK-MEL-2 melanoma.

With `COc1cc(/C=C/C(=O)c2cccc(-n3cc(-c4cc(OC)c(OC)c(OC)c4)[nH]c3=O)c2)cc(OC)c1OC`, the GI50 in the test with A498 renal is 20.3 µM; with HOP-62 NSCLC, 3.08 µM; in the test on M14 melanoma, 2.12 µM; in the test with NCI-H522 lung, 1.05 µM; with OVCAR-4 ovarian it was 3.77 µM; in the test on OVCAR-8 ovarian it was 2.32 µM. Moreover, the GI50 in the test on SF-295 CNS is 4.96 µM; in the test on SK-MEL-2 melanoma, 3.02 µM. Moreover, the TGI was above 100 µM in the test with A498 renal; 8.74 µM in the test with HOP-62 NSCLC; 4.8 µM in the test with M14 melanoma; 2.53 µM in the test with NCI-H522 lung; 55.6 µM in the test with OVCAR-4 ovarian; 8.9 µM with OVCAR-8 ovarian. In addition, the TGI in the test with SF-295 CNS came to 19.5 µM; in the test on SK-MEL-2 melanoma, 7.63 µM.

Take `NC(N)=N/N=C/c1c(-c2ccsc2)nc2n1CCS2`: the GI50 in the test with A498 renal was 64.1 µM; in the test with HOP-62 NSCLC, 19.8 µM; in the test on M14 melanoma it was 15.1 µM; in the test on NCI-H522 lung, 39.3 µM; with OVCAR-8 ovarian, 49 µM; with SF-295 CNS, above 100 µM. For the same molecule, the GI50 in the test with SK-MEL-2 melanoma was 51.9 µM. Also, the TGI in the test on A498 renal was above 100 µM; in the test with HOP-62 NSCLC it was 52.8 µM; in the test with M14 melanoma, 29.1 µM; with NCI-H522 lung it was above 100 µM; with OVCAR-8 ovarian, above 100 µM; in the test with SF-295 CNS, above 100 µM. In addition, the TGI with SK-MEL-2 melanoma is above 100 µM.

On to `CCCCN(CCCC)C(=O)[C@H](CC)[C@@H]1CC[C@@H](C)[C@@H]([C@H](C)[C@@H](O)[C@@H](C)C(=O)[C@H](CC)C2O[C@]3(C=C[C@@H](O)[C@]4(CC[C@@](C)([C@H]5CC[C@](O)(CC)[C@H](C)O5)O4)O3)[C@H](C)C[C@@H]2C)O1` (some centres not stated), for which the GI50 in the test with A498 renal was 1.99 µM; in the test with HOP-62 NSCLC, 3.79 µM; in the test on NCI-H522 lung it was 2.08 µM; in the test on OVCAR-4 ovarian it was 2.85 µM; in the test with OVCAR-8 ovarian it was 3.43 µM; in the test on SF-295 CNS, 2.06 µM. Moreover, the GI50 with SK-MEL-2 melanoma was 2.67 µM. Further, the TGI in the test with A498 renal worked out at 6.24 µM; in the test on HOP-62 NSCLC, 27.4 µM; in the test with NCI-H522 lung it was 5.44 µM; with OVCAR-4 ovarian, 36 µM; in the test with OVCAR-8 ovarian, 65.4 µM; in the test with SF-295 CNS it was 6.38 µM. In addition, the TGI in the test on SK-MEL-2 melanoma stood at 7.53 µM.

As for `CSC1=NC(=Nc2c(C)cccc2C)C2(CCC(C(C)(C)C)CC2)N1c1ccc(Cl)cc1` (configuration not stated), the GI50 is above 100 µM in the test with A498 renal; above 100 µM in the test on HOP-62 NSCLC; 68.2 µM in the test on M14 melanoma; above 100 µM in the test with OVCAR-4 ovarian; 15.1 µM in the test with OVCAR-8 ovarian; 29.9 µM with SF-295 CNS. For the same molecule, the GI50 in the test on SK-MEL-2 melanoma is above 100 µM. The TGI with A498 renal, with HOP-62 NSCLC, in the test with M14 melanoma, with OVCAR-4 ovarian, with OVCAR-8 ovarian and with SF-295 CNS was above 100 µM throughout. The molecule also gave a TGI in the test on SK-MEL-2 melanoma above 100 µM.

Take `CC(=O)Nc1ccc(C(=O)CCl)cc1`: the GI50 with HOP-62 NSCLC was 15 µM; in the test on M14 melanoma, 2.56 µM; with NCI-H522 lung, 2.06 µM; in the test with OVCAR-4 ovarian, 2.07 µM; with OVCAR-8 ovarian it was 7.56 µM; with SF-295 CNS, 16 µM. Moreover, the GI50 with SK-MEL-2 melanoma is 13.3 µM. Moreover, the TGI in the test on HOP-62 NSCLC was 32.1 µM; in the test with M14 melanoma, 7.38 µM; in the test with NCI-H522 lung, 4.17 µM; with OVCAR-4 ovarian, 4.06 µM; in the test on OVCAR-8 ovarian, 24.2 µM; with SF-295 CNS it was 33.7 µM. For the same molecule, the TGI in the test on SK-MEL-2 melanoma is 27.8 µM.

Turning to `CCOC(=O)CSc1cc(Cl)c(C)cc1S(=O)(=O)/N=C(/N=C/c1ccc([N+](=O)[O-])s1)NNC`, the GI50 is 13.3 µM in the test on HOP-62 NSCLC; 23.1 µM in the test on M14 melanoma; 30.2 µM in the test with NCI-H522 lung; 20.7 µM in the test on OVCAR-4 ovarian; 32.7 µM in the test with OVCAR-8 ovarian; 16.1 µM in the test with SF-295 CNS. For the same molecule, the GI50 in the test on SK-MEL-2 melanoma is 31 µM. Also, the TGI was found to be 31.3 µM in the test with HOP-62 NSCLC; 56.8 µM with M14 melanoma; 79.7 µM in the test with NCI-H522 lung; 62.4 µM in the test on OVCAR-4 ovarian; 80.2 µM in the test with OVCAR-8 ovarian; 47 µM in the test with SF-295 CNS. Further, in the test with SK-MEL-2 melanoma, the TGI was determined as 59.1 µM.

`COc1cc([N+](=O)[O-])c(OC)cc1-c1nc2sc(C)c(C)n2c1/C(N)=N/C(=N)N`: the GI50 in the test with HOP-62 NSCLC, in the test with M14 melanoma, in the test on NCI-H522 lung and in the test with SF-295 CNS was above 100 µM throughout. For the same molecule, the TGI with HOP-62 NSCLC, with M14 melanoma, in the test on NCI-H522 lung and in the test on SF-295 CNS was above 100 µM in each case.
